Measurements: US20200129528A1, “METHODS FOR TREATING BLOOD PRESSURE CONDITIONS USING AMINOSTEROL COMPOSITIONS” (Enterin, Inc., priority 2018, published 2020)
“And” between values parts separate entries of the source, which are not always exact repeats. Identical values can stand only once.

Key:
[1] = system: patients with PD and constipation; experiment: Phase 2 trial: adverse events in all 44 dosed patients; assay type: in vivo, human
Description: Fifty patients were enrolled and 44 were dosed. In Stage 1, 10 patients were dosed, 1 (10%) withdrew prior to completion and 9 (90%) completed dosing. In stage 2, 6 (15%) patients had ≥3 CSBM/week at the end of the run-in period and were excluded, 34 patients were dosed and bowel response was assessable in 31 (91%). Two patients (5.8%) were terminated prior to completion because of recurrent dizziness, and 3 others withdrew during dosing (8.8%): 2 because of diarrhea and 1 because of holiday. Fifteen patients were randomized.
Most AEs were confined to the GI tract (88% in Stage 1 and 63% in Stage 2). The most common AE was nausea which occurred in 4/10 (40%) patients in Stage 1 and in 18/34 (52.9%) in Stage 2 (Table 2). Diarrhea occurred in 4/10 (40%) patients in Stage 1 and 15/34 (44%) in Stage 2. One patient withdrew because of recurrent diarrhea. Other GI related AEs included abdominal pain 11/44 […], flatulence 3/44 (6.8%), vomiting 3/44 (6.8%), worsening of acid reflux 2/44 (4.5%), and worsening of hemorrhoids 1/44 (2.2%). […] The only other noteworthy AE was dizziness 8/44 (18%). Dizziness was graded as moderate in one patient who was receiving an alpha-adrenergic blocking agent (Terazosin). This patient was withdrawn from the study and recovered spontaneously.

[2] = system: patients with PD and constipation; experiment: Neurological (CNS) symptoms in Stage 2: UPDRS, MMSE, PDHQ, BDI-II; assay type: in vivo, human; conditions: for patients in whom hallucinations or delusions improved or disappeared during treatment: 6 patients with hallucinations (5) or delusions (1) at baseline
From the text: (8) Beck Depression Inventory (BDI-II);
(9) Unified Parkinson's Disease Rating Scale (UPDRS), which consists of 42 items in four subscales (Part I=Non-Motor Aspects of Experiences of Daily Living (nM-EDL) (1.1 cognitive impairment, 1.2 hallucinations and psychosis, 1.3 depressed mood, Part II=Motor Aspects of Experiences of Daily Living (M-EDL), Part III=Motor Examination, and Part IV=Motor Complications;
(10) Mini Mental State Examination (MMSE);
(12) The University of Miami Parkinson's Disease Hallucinations Questionnaire (UM-PDHQ);
Exploratory end-points, in addition to constipation, included for example, (i) depression assessed using the Beck Depression Inventory (BDI-II) (Steer et al. 2000) and Unified Parkinson's Disease Rating Scale (UPDRS); (ii) cognition assessed using the Mini Mental State Examination (MMSE) (Palsteia et al. 2018), Unified Parkinson's Disease Rating Scale (UPDRS), and Trail Making Test (TMT); (iii) sleep and REM-behavior disorder (RBI)) using a daily sleep diary, I-Button Temperature Assessment, a REM sleep behavior disorder (RBD) questionnaire (RBDQ) (Stiasny-Kolster et al. 2007), and the UPDRS; (iv) hallucinations assessed using the PD hallucinations questionnaire (PDHQ) (Papapetropoulos et al. 2008), the UPDRS, and direct questioning; (v) fatigue using the Parkinson's Disease Fatigue Scale (PFS-16) and the UPDRS; (vi) motor functions using the UPDRS; and (vii) non-motor functions using the UPDRS.
Assessments were made at baseline and at the end of the fixed dose and washout periods. Circadian system status was evaluated by continuously monitoring wrist skin temperature (Thermochron iButton DS1921H; Maxim, Dallas) following published procedures (Sarabia et al. 2008).
An exploratory analysis was done with respect to the sleep data, the body temperature data, mood, fatigue, hallucinations, cognition and other motor and non-motor symptoms of PD. Continuous measurements within a subject were compared with a paired t-test and continuous measurements between subject groups were compared with a two-group t-test. Categorical data were compared with a chi-squared test or a Fisher's exact test if the expected cell counts are too small for a chi-squared test.

[3] = system: patients with PD and constipation; experiment: Sleep diary in Stage 2: total sleep time, arm or leg thrashing (RBD); assay type: in vivo, human; conditions: baseline to maximal dose
Description: FIG. 3 is a chart of total sleep time in relation to squalamine dose. Total sleep time was obtained from the sleep diary by subtracting awake time during the night from total time spent in bed. Total sleep time per night was logged for each patient at baseline, each dosing period and at washout, and the means were determined. The light grey bar represents the baseline value for each cohort at a given dose level and the dark grey bar represents the value for the same cohort at the stated dose of squalamine (ENT-01; Kenterin™). The number of patients represented at each value are: Baseline, 33; 75 mg, 21; 100 mg, 28; 125 mg, 18; 150 mg, 15; 175 mg, 12; 200 mg, 7; 225 mg, 3; 250 mg, 2; washout, 33. P values were as follows: 75 mg, p=0.4; 100 mg, p=0.1; 125 mg, p=0.3; 150 mg, p=0.07; 175 mg, p=0.03; 200 mg, p=0.3; 225 mg, p=0.5; 250 mg, p=0.3; wash-out, p=0.04 (paired t test).
(5) Sleep Diary (participants completed a sleep diary on a daily basis throughout the study. The diaries included time into bed and estimated time to sleep as well as wake time and duration during the night.); […]

[4] = system: patients with PD and constipation; experiment: Systolic blood pressure in Stage 2 of the clinical study; assay type: in vivo, human; conditions: for change of blood pressure in subjects with high blood pressure / change of blood pressure in subjects with low blood pressure: Stage 2, post medication / fixed dose versus baseline
From the text: Subjects in Stage 2 of the clinical study described in Example 1 had their systolic blood pressure measured at various points during the clinical study. […]

[5] = parameters: species or system dogs; conditions: dog, in vivo
[6] = Stage 2, individual subjects, one line per subject

SMILES: CC(C)[C@@H](CC[C@@H](C)[C@H]1CC[C@H]2[C@@H]3[C@H](O)C[C@H]4C[C@@H](NCCCNCCCCN)CC[C@]4(C)[C@H]3CC[C@]12C)OS(=O)(=O)O (single isomer, unassigned) [ENT-01, squalamine]
- outcome of all other AEs ([1]; human, in vivo): resolved spontaneously without discontinuation
- lower GI bleed (serious adverse event), relation to drug ([1]; one patient, during the withdrawal period, on aspirin, naproxen and clopidogrel): unrelated to study medication
- time without return of hallucinations/delusions after discontinuation ([2]; 1 patient): 4 weeks
- patients in whom hallucinations or delusions improved or disappeared during treatment [2]: five
- patients in whom hallucinations or delusions improved or disappeared during treatment ([2]; listed as aminosterol): five and 5 of 6
- patients in whom hallucinations or delusions improved or disappeared during treatment ([2]; listed as squalamine (ENT-01)): 5 of 6
- time without return of hallucinations/delusions after discontinuation ([2]; another patient): 2 weeks
- improvement of arm or leg thrashing frequency [3]: 100%
- BP at FD-V4 pre dose [4, 6]: 122 and 147 and 144 and 154 and 115 and 110 (2×) and 138 and 130 and 121 and 113
- BP at V4 + 2 hrs post dose [4, 6]: 113 and 163 and 138 and 105 and 11 and 132 (2×) and 126 and 131 and 115
- final BP- v3, mean ([4]; Stage 2, mean of series, initial mean 133.4219, p=0.011638): 126.3
- change of blood pressure in subjects with high blood pressure [4]: decreased blood pressure
- change of blood pressure in subjects with low blood pressure [4]: increased blood pressure
- change of blood pressure in subjects with high blood pressure ([4]; listed as aminosterol): lower blood pressure
- change of blood pressure in subjects with low blood pressure ([4]; listed as aminosterol): higher blood pressure
- oral bioavailability [5]: limited bioavailability
